Source: patent US7407947B2, “Amphoteric sterols and the use thereof” (Novosom AG, priority 2001, dated 2008)

Experiment: Isoelectric point of the sterol derivative
Assay type: physicochemical
Settings: stated as very close to pH 6.5

isoelectric point: ~6.5
SMILES: CC(C)CCCC(C)C1CCC2C3CC=C4CC(OC(=O)CCC(=O)NC(Cc5cnc[nH]5)C(=O)O)CCC4(C)C3CCC12C [Hist-Chol, Cholesteryl-L-histidyl Succinate]
